Patent publication US4614714A (priority 1982, dated 1986)
Entries after “also recorded” stand apart in the source; their conditions may differ. Counter-ions that a name gives are not always drawn. Like-named read-outs stand apart in the source and are kept apart here. One block for each molecule: values may come before it.

Key:
[1] = molecular target: T1, novel L-glutamic acid oxidase (Streptomyces sp, UniProt Q8L3C7); experiment: Effects of various additives on the activity of the novel enzyme; assay type: biochemical, Streptomyces sp. X-119-6; design: from the cultured product of an actinomycete newly isolated from a soil sample; made in house; host or cells: cultured product of the natural (non-recombinant) actinomycete strain, purified
T1 sequence (Q8L3C7 15-390 limits assumed): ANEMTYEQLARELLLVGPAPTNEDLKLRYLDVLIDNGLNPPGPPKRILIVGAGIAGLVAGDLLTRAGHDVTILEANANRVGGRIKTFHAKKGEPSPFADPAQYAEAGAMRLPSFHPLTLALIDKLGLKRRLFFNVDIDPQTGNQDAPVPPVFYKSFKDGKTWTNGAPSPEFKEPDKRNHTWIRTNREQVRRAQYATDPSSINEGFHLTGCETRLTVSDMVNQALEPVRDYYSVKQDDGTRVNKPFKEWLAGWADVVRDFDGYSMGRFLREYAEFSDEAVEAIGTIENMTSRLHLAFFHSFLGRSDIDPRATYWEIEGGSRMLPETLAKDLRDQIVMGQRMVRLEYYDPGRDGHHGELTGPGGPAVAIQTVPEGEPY
T1 sequence (Q8L3C7 391-520 limits assumed): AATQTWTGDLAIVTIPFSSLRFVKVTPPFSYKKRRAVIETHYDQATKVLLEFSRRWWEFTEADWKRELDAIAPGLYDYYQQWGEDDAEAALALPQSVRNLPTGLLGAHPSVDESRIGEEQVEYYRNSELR
T1 sequence (Q8L3C7 521-701 limits assumed): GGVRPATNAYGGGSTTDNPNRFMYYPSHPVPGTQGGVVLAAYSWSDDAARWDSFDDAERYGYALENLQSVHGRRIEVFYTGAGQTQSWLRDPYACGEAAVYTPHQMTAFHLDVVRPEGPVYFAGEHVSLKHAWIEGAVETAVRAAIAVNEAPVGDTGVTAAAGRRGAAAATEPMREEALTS

[2] = system: lyophilized cell of E. coli, which exhibits L-glutamic acid decarboxylase activity; settings: microorganism electrode, cited from earlier work; for Relative sensitivity ratio: glutamic acid = 100
[3] = system: glutamic acid oxidase (known enzyme); settings: cited from earlier work
[4] = molecular target: T1, novel L-glutamic acid oxidase; experiment: Substrate specificity of the novel enzyme, oxygen electrode method
Protocol: The concentration of each substrate was 10 mM, and the reactions were carried out at pH 7.4 (0.1 M potassium phosphate buffer) and pH 6.0 (0.1 M acetate buffer).
That is, 1 ml of 0.1 M potassium phosphate buffer (pH 7.4) containing 10 mM sodium L-glutamate was charged into an oxygen electrode cell and 10 μl of an enzyme solution was added thereto to measure the oxygen consumption rate. One unit of enzyme was determined as the amount of enzyme which consumes 1μ mol of oxygen per minute at 30° C. in the absence of catalase (unit: hereinafter abbreviated as "U").

[5] = molecular target: T2, immobilized L-glutamic acid oxidase (Streptomyces sp, UniProt Q8L3C7); experiment: Responses of the L-glutamic acid sensor of Example C1 to various amino acids; assay type: biochemical, Streptomyces sp. X-119-6
T2 construct: from the cultured product of an actinomycete newly isolated from a soil sample; made in house; host or cells: cultured product of the natural (non-recombinant) actinomycete strain; immobilized on a Cellophane membrane with glutaraldehyde
T2 sequence (Q8L3C7 15-390 limits assumed): T1 sequence (Q8L3C7 15-390 limits assumed)
T2 sequence (Q8L3C7 391-520 limits assumed): T1 sequence (Q8L3C7 391-520 limits assumed)
T2 sequence (Q8L3C7 521-701 limits assumed): T1 sequence (Q8L3C7 521-701 limits assumed)
Protocol: In FIG. 18, the sample solution 2 injected through inlet 1 is transferred by a peristaltic pump 4 together with oxygen saturated buffer 3 into a cell 5.
The results obtained by the measurement are shown as relative responses. The reaction was carried out in 0.1M of acetic acid-sodium acetate buffer at pH 5.5 and 30° C.

[6] = system: glutamic acid oxidase (known enzyme); settings: cited from earlier work; for activity of the known enzyme: relative to L-glutamic acid; for relative activity of the known enzyme: velocity of enzymatic reaction for L-glutamic acid given as 100
[7] = additive 1 mM, pH 7.4, no addition = 100
[8] = pH 6, read-out: Relative Activity (%) pH 6.0, substrate 10 mM, pH 6.0 (0.1 M acetate buffer), relative to L-glutamic acid
[9] = pH 7.4, read-out: Relative Activity (%) pH 7.4, substrate 10 mM, pH 7.4 (0.1 M potassium phosphate buffer), relative to L-glutamic acid
[10] = pH 5.5; read-out: Relative response (%)
[11] = additive 1 mM, pH 7.4, no addition = 100, read-out: Relative activity
[12] = pH 5.5, read-out: Relative response (%)
[13] = pH 6, read-out: Relative Activity (%) pH 6.0
[14] = pH 7.4, read-out: Relative Activity (%) pH 7.4

Relative activity [1, 7]: 93.8
Molecule: O=S(=O)([O-])[O-].O=S(=O)([O-])[O-].O=S(=O)([O-])[O-].[Al+3].[Al+3] [Al2 (SO4)3]

Molecule: C[C@H](N)C(=O)O [Alanine]
Relative sensitivity ratio [2]: 0.5

Molecule: N=C(N)NCCC[C@H](N)C(=O)O [Arginine]
Relative sensitivity ratio [2]: 0.6

Molecule: N[C@@H](CC(=O)O)C(=O)O [Aspartic acid]
Relative sensitivity ratio [2]: 1.0

Molecule: [Ba+2].[Cl-].[Cl-] [BaCl2]
Relative activity [1, 7]: 95.1

Molecule: [Ca+2].[Cl-].[Cl-] [CaCl2]
Relative activity [1, 7]: 100.0

Molecule: [Cl][Cu][Cl] [CuCl2, cupric chloride]
inhibition of the known enzyme (in words) [3]: completely inhibited
inhibition of the activity of the novel enzyme (in words) ([1]; additive 1 mM, pH 7.4): not inhibited at all

Molecule: N[C@@H](CSSC[C@H](N)C(=O)O)C(=O)O [Cystine]
Relative sensitivity ratio [2]: 0.4

Molecule: N[C@H](CCC(=O)O)C(=O)O [D-Glutamic acid]
activity at 10000 µM [4, 8]: < 0.1%
activity of the novel enzyme (in words) ([4]; pH 7.4): substantially no activity
activity at 10000 µM [4, 9]: < 0.1%
activity at 2000 µM [5, 10]: < 0.1%

activity at 1000 µM [1, 11]: 101%
Molecule: CCN(CC)C(=S)S [DDTC, diethyldithiocarbamate]

Molecule: O=C(O)CN(CCN(CC(=O)O)CC(=O)O)CC(=O)O [EDTA, ethylenediaminetetraacetic acid]
activity at 1000 µM ([1]; pH 7.4, read-out: Relative activity): 96.5%

Molecule: N[C@@H](CCC(=O)O)C(=O)O [Glutamic acid]
Relative sensitivity ratio [2]: 100

Molecule: NC(=O)CC[C@H](N)C(=O)O [Glutamine]
Relative sensitivity ratio, acetone treated cell ([2]; acetone treated cell was employed): 11
Relative sensitivity ratio [2]: 108

Molecule: NCC(=O)O [Glycine]
activity at 10000 µM [4, 8]: < 0.1%
activity at 10000 µM [4, 9]: < 0.1%
Relative sensitivity ratio [2]: 0.4
activity at 2000 µM [5, 12]: < 0.1%

Molecule: [Cl-].[K+] [KCl]
Relative activity [1, 7]: 111.1

Relative activity [1, 7]: 100.7
Molecule: [I-].[K+] [KI]

Molecule: C[C@H](N)C(=O)O [L-Alanine]
activity at 10000 µM [4, 8]: < 0.1%
activity at 10000 µM [4, 9]: < 0.1%
activity at 2000 µM [5, 12]: < 0.1%

Molecule: N=C(N)NCCC[C@H](N)C(=O)O [L-Arginine]
activity at 10000 µM [4, 8]: < 0.1%
activity at 10000 µM [4, 9]: < 0.1%
activity at 2000 µM [5, 12]: < 0.1%

activity at 10000 µM [4, 13]: < 0.1%
activity at 10000 µM [4, 14]: < 0.1%
activity at 2000 µM [5, 10]: < 1%
Molecule: NC(=O)C[C@H](N)C(=O)O [L-Asparagine]

Molecule: N[C@@H](CC(=O)O)C(=O)O [L-Aspartic acid]
activity of the novel enzyme (in words) ([4]; pH 6.0): substantially no activity; also recorded: substantially no action
activity at 10000 µM [4, 8]: < 0.1%
activity at 10000 µM [4, 9]: 0.6%
Relative Activity (%) pH 6.0 ([4]; substrate 10 mM, pH 6.0 (0.1 M acetate buffer), relative to L-glutamic acid): ≤ 0.1%
activity of the known enzyme [6]: ≤ 0.1%
activity at 2000 µM [5, 12]: < 1%

Molecule: N[C@@H](CS)C(=O)O [L-Cysteine]
activity at 10000 µM [4, 8]: < 0.1%
activity at 10000 µM [4, 9]: < 0.1%
activity at 2000 µM [5, 12]: < 0.1%

activity at 10000 µM [4, 13]: 100%
activity at 10000 µM [4, 14]: 100%
activity at 2000 µM [5, 10]: 100%
Molecule: N[C@@H](CCC(=O)O)C(=O)O [L-Glutamic acid]

Molecule: NC(=O)CC[C@H](N)C(=O)O [L-Glutamine]
activity at 10000 µM [4, 8]: < 0.1%
activity of the novel enzyme (in words) ([4]; pH 7.4): substantially no activity
activity at 10000 µM [4, 9]: < 0.1%
activity of the known enzyme [6]: 8.4%
relative activity of the known enzyme [6]: 8.4
activity at 2000 µM [5, 12]: < 2%

activity at 10000 µM [4, 13]: < 0.1%
activity of the novel enzyme (in words) ([4]; pH 7.4): substantially no activity
activity at 10000 µM [4, 14]: < 0.1%
activity at 2000 µM [5, 10]: < 0.1%
Molecule: N[C@@H](Cc1c[nH]cn1)C(=O)O [L-Histidine]
activity of the known enzyme [6]: 6.8%
relative activity of the known enzyme [6]: 6.8

Molecule: CC[C@H](C)[C@H](N)C(=O)O [L-Isoleucine]
activity at 10000 µM [4, 8]: < 0.1%
activity at 10000 µM [4, 9]: < 0.1%
activity at 2000 µM [5, 12]: < 0.1%

Molecule: CC(C)C[C@H](N)C(=O)O [L-Leucine]
activity at 10000 µM [4, 8]: < 0.1%
activity at 10000 µM [4, 9]: < 0.1%
activity at 2000 µM [5, 12]: < 0.1%

Molecule: NCCCC[C@H](N)C(=O)O [L-Lysine]
activity at 10000 µM [4, 8]: < 0.1%
activity at 10000 µM [4, 9]: < 0.1%
activity at 2000 µM [5, 12]: < 0.1%

Molecule: CSCC[C@H](N)C(=O)O [L-Methionine]
activity at 10000 µM [4, 8]: < 0.1%
activity at 10000 µM [4, 9]: < 0.1%
activity at 2000 µM [5, 12]: < 0.1%

Molecule: NCCC[C@H](N)C(=O)O [L-Ornithine]
activity at 10000 µM [4, 8]: < 0.1%
activity at 10000 µM [4, 9]: < 0.1%
activity at 2000 µM [5, 12]: < 0.1%

activity at 10000 µM [4, 13]: < 0.1%
activity at 10000 µM [4, 14]: < 0.1%
activity at 2000 µM [5, 10]: < 0.1%
Molecule: N[C@@H](Cc1ccccc1)C(=O)O [L-Phenylalanine]

Molecule: O=C(O)[C@@H]1CCCN1 [L-Proline]
activity at 10000 µM [4, 8]: < 0.1%
activity at 10000 µM [4, 9]: < 0.1%
activity at 2000 µM [5, 12]: < 0.1%

Molecule: N[C@@H](CO)C(=O)O [L-Serine]
activity at 10000 µM [4, 8]: < 0.1%
activity at 2000 µM [5, 12]: < 0.1%

activity at 10000 µM [4, 13]: < 0.1%
activity at 10000 µM [4, 14]: < 0.1%
activity at 2000 µM [5, 10]: < 0.1%
Molecule: C[C@@H](O)[C@H](N)C(=O)O [L-Threonine]

Molecule: N[C@@H](Cc1c[nH]c2ccccc12)C(=O)O [L-Tryptophan]
activity at 2000 µM [5, 12]: < 0.1%

Molecule: N[C@@H](Cc1ccc(O)cc1)C(=O)O [L-Tyrosine]
activity at 10000 µM [4, 8]: < 0.1%
activity at 10000 µM [4, 9]: < 0.1%

Molecule: CC(C)[C@H](N)C(=O)O [L-Valine]
activity at 10000 µM [4, 8]: < 0.1%
activity at 10000 µM [4, 9]: < 0.1%
activity at 2000 µM [5, 12]: < 0.1%

Relative activity [1, 7]: 93.8
Molecule: O=S(=O)([O-])[O-].[Li+].[Li+] [Li2 SO4]

Relative activity [1, 7]: 102.1
Molecule: O=S(=O)([O-])[O-].[Mn+2] [MnSO4]

Molecule: CCN1C(=O)C=CC1=O [NEM, N--ethylmaleimide]
activity at 1000 µM [1, 11]: 94.4%

Molecule: [Cl-].[Na+] [NaCl]
Relative activity ([1]; l-glutamic acid oxidase, pH 7.4, 1000 µM): 95.8

Relative activity [1, 7]: 107.6
Molecule: [F-].[Na+] [NaF]

Molecule: [N-]=[N+]=[N-].[Na+] [NaN3]
Relative activity [1, 7]: 100.6

Molecule: [Cl][Ni][Cl] [NiCl2]
Relative activity [1, 7]: 96.5

Molecule: O=C(O)c1cc[c]([Hg][Cl])cc1 [PCMB, pchloromercuribenzoate]
inhibition of the activity of the novel enzyme ([1]; additive 1 mM, pH 7.4): about 45%
Relative activity [1, 7]: 55.6

Relative activity [1, 7]: 97.2
Molecule: [Cl-].[Cl-].[Sr+2] [StCl2]

Molecule: O=S(=O)(O)c1cc(O)c(O)c(S(=O)(=O)O)c1 [Tiron, 4,5dihydroxy-1,3-benzenedisulfonic acid disodium salt]
activity at 1000 µM [1, 11]: 101%

Molecule: N[C@@H](Cc1c[nH]c2ccccc12)C(=O)O [Tryptophan]
Relative sensitivity ratio [2]: 0.4

Relative activity [1, 7]: 90.3
Molecule: O=S(=O)([O-])[O-].[Zn+2] [ZnSO4]

Molecule: [Cu+] [copper ions]
inhibition of the known enzyme (in words) [3]: Substantially completely inhibited; also recorded: markedly inhibited

activity at 1000 µM [1, 11]: 97.8%
Molecule: c1cnc2c(c1)ccc1cccnc12 [o-phenanthroline]

Molecule: c1ccc(-c2ccccn2)nc1 [α,α'-dipyridyl]
activity at 1000 µM [1, 11]: 94.4%

Molecule: mercury ions
inhibition of the known enzyme (in words) [3]: Substantially completely inhibited
